Results from patent US20180179177A1, “N-ACYLIMINO HETEROCYCLIC COMPOUNDS FOR CONTROLLING INVERTEBRATE PESTS” (BASF SE, priority 2014, published 2018).

Tests used:
Format in all cases: in vivo
[1] = tested on: vetch aphid (Megoura viciae); assay: Vetch aphid control, contact or systemic, broad bean leaf disks; conditions: foliar, 120 h, aphid mortality after 5 days, read-out: mortality in comparison with untreated controls
Procedure: B.3 Vetch Aphid (Megoura viciae)
For evaluating control of vetch aphid (Megoura viciae) through contact or systemic means the test unit consisted of 24-well-microtiter plates containing broad bean leaf disks.
The compounds were formulated using a solution containing 75% v/v water and 25% v/v DMSO. Different concentrations of formulated compounds were sprayed onto the leaf disks at 2.5 μl, using a custom built micro atomizer, at two replications.
After application, the leaf disks were air-dried and 5-8 adult aphids were placed on the leaf disks inside the microtiter plate wells. The aphids were then allowed to suck on the treated leaf disks and were incubated at about 23±10C and about 50±5% relative humidity for 5 days. Aphid mortality and fecundity was then visually assessed.

[2] = tested on: green peach aphid (Myzus persicae); assay: Green peach aphid control, systemic, artificial diet under membrane; conditions: 72 h, aphid mortality after 3 days, read-out: mortality in comparison with untreated controls
Text: B.4 Green Peach Aphid (Myzus persicae)
For evaluating control of green peach aphid (Myzuspersicae) through systemic means, the test unit consists of 96-well-microtiter plates containing liquid artificial diet under an artificial membrane.
The compounds are formulated using a solution containing 75% v/v water and 25% v/v DMSO. Different concentrations of formulated compounds are pipetted into the aphid diet, using a custom built pipetter, at two replications.
After application, 5-8 adult aphids are placed on the artificial membrane inside the microtiter plate wells. The aphids are then allowed to suck on the treated aphid diet and incubated at about 23±10C and about 50±5% relative humidity for 3 days. Aphid mortality and fecundity is then visually assessed.

[3] = tested on: Cowpea aphid (Aphis craccivora); assay: Cowpea aphid test, sprayed potted cowpea plants; conditions: after 72 hours, read-out: mortality in comparison with untreated controls
Procedure: B.6 Cowpea Aphid (Aphis craccivora)
(§1) The active compound is dissolved at the desired concentration in a mixture of 1:1 (vol:vol) distilled water:acetone. Surfactant (Alkamuls® EL 620) is added at a rate of 0.1% (vol/vol). The test solution is prepared at the day of use.
Potted cowpea plants are colonized with approximately 50-100 aphids of various stages by manually transferring a leaf tissue cut from infested plant 24 hours before application. Plants are sprayed after the pest population has been recorded. Treated plants are maintained on light carts at about 28° C. Percent mortality is assessed after 72 hours.

[4] = tested on: Mediterranean fruitfly (Ceratitis capitata); assay: Mediterranean fruitfly control, insect diet in microtiter plates; conditions: 120 h, egg and larval mortality after 5 days, read-out: mortality in comparison with untreated controls
Procedure: B.2 Mediterranean Fruitfly (Ceratitis capitata)
For evaluating control of Mediterranean fruitfly (Ceratitis capitata) the test unit consisted of microtiter plates containing an insect diet and 50-80 C. capitata eggs. The compounds were formulated using a solution containing 75% v/v water and 25% v/v DMSO. Different concentrations of formulated compounds were sprayed onto the insect diet at 5 μl, using a custom built micro atomizer, at two replications.
After application, microtiter plates were incubated at about 28±1° C. and about 80±5% relative humidity for 5 days. Egg and larval mortality was then visually assessed.

[5] = tested on: Orchid thrips (Dichromothrips corbetti); assay: Orchid thrips floral-immersion test; conditions: 72 hours after treatment, read-out: mortality in comparison with untreated controls
Procedure: B.5 Orchid Thrips (Dichromothrips Corbetti)
Dichromothrips corbetti adults used for bioassay are obtained from a colony maintained continuously under laboratory conditions. For testing purposes, the test compound is diluted in a 1:1 mixture of acetone:water (vol:vol), plus 0.01% vol/vol Alkamuls® EL 620 surfactant.
Thrips potency of each compound is evaluated by using a floral-immersion technique. Plastic petri dishes are used as test arenas. All petals of individual, intact orchid flowers are dipped into treatment solution and allowed to dry. Treated flowers are placed into individual petri dishes along with about 20 adult thrips. The petri dishes are then covered with lids. All test arenas are held under continuous light and a temperature of about 28° C. for duration of the assay. After 3 days, the numbers of live thrips are counted on each flower, and along inner walls of each petri dish. The percent mortality is recorded 72 hours after treatment.

[6] = tested on: Rice green leafhopper (Nephotettix virescens); assay: Rice green leafhopper test, sprayed rice seedlings; conditions: after 72 hours, read-out: mortality in comparison with untreated controls
Procedure: B.7 Rice Green Leafhopper (Nephotettix virescens)
(§2) Rice seedlings are cleaned and washed 24 hours before spraying. The active compounds are formulated in 50:50 acetone:water (vol:vol), and 0.1% vol/vol surfactant (EL 620) is added. Potted rice seedlings are sprayed with 5 ml test solution, air dried, placed in cages and inoculated with 10 adults. Treated rice plants are kept at about 28-29° C. and relative humidity of about 50-60%. Percent mortality is recorded after 72 hours.

[7] = tested on: Cotton aphid (Aphis gossypih); assay: Cotton aphid test, sprayed potted plants; conditions: after 72 hours, read-out: mortality in comparison with untreated controls
Procedure: B.11 Cotton Aphid (Aphis gossypih)
as §1
Potted cowpea plants were colonized with approximately 50-100 aphids of various stages by manually transferring a leaf tissue cut from infested plant 24 hours before application. Plants were sprayed after the pest population has been recorded. Treated plants are maintained on light carts at about 28° C. Percent mortality was assessed after 72 hours.

[8] = tested on: Silverleaf whitefly (Bemisia argentifolii); assay: Silverleaf whitefly test, sprayed cotton plants; conditions: 72 h, 3 days after treatment, adults, read-out: mortality in comparison with untreated controls
Text: B.12 Silverleaf Whitefly (Bemisia argentifolii)
(§3) The active compounds are formulated in cyclohexanone as a 10,000 ppm solution supplied in tubes. The tubes are inserted into an automated electrostatic sprayer equipped with an atomizing nozzle and they serve as stock solutions for which lower dilutions are made in 50% acetone:50% water (v/v). A nonionic surfactant (Kinetic®) is included in the solution at a volume of 0.01% (v/v).
Cotton plants at the cotyledon stage (one plant per pot) are sprayed by an automated electrostatic plant sprayer equipped with an atomizing spray nozzle. The plants are dried in the sprayer fume hood and then removed from the sprayer. Each pot is placed into a plastic cup and about 10 to 12 whitefly adults (approximately 3-5 days old) are introduced. The insects are collected using an aspirator and a nontoxic Tygon® tubing connected to a barrier pipette tip. The tip, containing the collected insects, is then gently inserted into the soil containing the treated plant, allowing insects to crawl out of the tip to reach the foliage for feeding. Cups are covered with a reusable screened lid. […] Mortality is assessed 3 days after treatment, compared to untreated control plants.

[9] = tested on: boll weevil (Anthonomus grandis); assay: Boll weevil control, insect diet in 96-well microtiter plates; conditions: 120 h, egg and larval mortality after 5 days, read-out: mortality in comparison with untreated controls
Procedure: B.1 Boll Weevil (Anthonomus grandis)
For evaluating control of boll weevil (Anthonomus grandis) the test unit consisted of 96-well-microtiter plates containing an insect diet and 5-10 A. grandis eggs.
The compounds were formulated using a solution containing 75% v/v water and 25% v/v DMSO. Different concentrations of formulated compounds were sprayed onto the insect diet at 5 μl, using a custom built micro atomizer, at two replications.
After application, microtiter plates were incubated at about 25±10C and about 75±5% relative humidity for 5 days. Egg and larval mortality was then visually assessed.

[10] = tested on: Green soldier stink bug (Nezara viridula); assay: Green soldier stink bug test, sprayed soybean pods; conditions: 120 h, after 5 days, 3rd instar, read-out: mortality in comparison with untreated controls
Procedure: B.8 Green Soldier Stink Bug (Nezara viridula)
The active compound is dissolved at the desired concentration in a mixture of 1:1 (vol:vol) distilled water:aceteone. Surfactant (Kinetic HV) is added at a rate of 0.01% (vol/vol). The test solution is prepared at the day of use.
Soybean pods were placed in microwavable plastic cups lined with moist filter paper and inoculated with ten 3rd instar N. viridula. Using a hand atomizer, approximately 2 ml solution is sprayed into each cup. Treated cups were kept at about 28-29° C. and relative humidity of about 50-60%. Percent mortality was recorded after 5 days.

[11] = tested on: Rice brown plant hopper (Nilaparvata lugens); assay: Rice brown plant hopper test, sprayed rice seedlings; conditions: after 72 hours, read-out: mortality in comparison with untreated controls
Procedure: B.9 Rice Brown Plant Hopper (Nilaparvata lugens)
as §2, with “compounds is” for “compounds are”, “acetone:water (vol:vol)” for “acetone:water (vol:vol),”, “620) was” for “620) is”

[12] = tested on: Diamond back moth (Plutella xylostella); assay: Diamond back moth test, dipped cabbage leaves; conditions: 72 hours after treatment, 3rd instar larvae, read-out: mortality in comparison with untreated controls
Procedure: B.10 Diamond Back Moth (Plutella xylostella)
The active compound is dissolved at the desired concentration in a mixture of 1:1 (vol:vol) distilled water:aceteone. Surfactant (Alkamuls® EL 620) is added at a rate of 0.1% (vol/vol). The test solution is prepared at the day of use.
Leaves of cabbage were dipped in test solution and air-dried. Treated leaves were placed in petri dish eslined with moist filter paper and inoculated with ten 3rd instar larvae. Mortality was recorded 72 hours after treatment. Feeding damages were also recorded using a scale of 0-100%.

[13] = tested on: Southern armyworm (Spodoptera eridania); assay: Southern armyworm test, sprayed lima bean plants; conditions: 96 h, 4 days after treatment, larvae, read-out: mortality in comparison with untreated controls
Procedure: B.13 Southern Armyworm (Spodoptera eridania)
as §3, with “were” for “are”, “served” for “serve”, “was” for “is”
Lima bean plants (variety Sieva) were grown 2 plants to a pot and selected for treatment at the 1st true leaf stage. Test solutions were sprayed onto the foliage by an automated electrostatic plant sprayer equipped with an atomizing spray nozzle. The plants were dried in the sprayer fume hood and then removed from the sprayer. Each pot was placed into perforated plastic bags with a zip closure. About 10 to 11 armyworm larvae were placed into the bag and the bags zipped closed. Test plants were maintained in a growth room at about 250C and about 20-40% relative humidity for 4 days, avoiding direct exposure to fluorescent light (24 hour photoperiod) to prevent trapping of heat inside the bags. Mortality and reduced feeding were assessed 4 days after treatment, compared to untreated control plants.

Row | Compound | mortality at 2500 ppm [1] [%] | mortality at 2500 ppm [2] [%] | mortality at 500 ppm [3] [%] | mortality at 2500 ppm [4] [%] | mortality at 500 ppm [5] [%] | mortality at 500 ppm [6] [%] | mortality at 500 ppm [7] [%] | mortality at 500 ppm [8] [%] | mortality at 2500 ppm [9] [%] | mortality at 500 ppm [10] [%] | mortality at 500 ppm [11] [%] | mortality at 500 ppm [12] [%] | mortality at 500 ppm [13] [%]
1 | O=C(/N=c1\ccccn1Cc1ccc(Cl)nc1)C1([N+](=O)[O-])CC1c1ccccc1 (stereo not drawn) [Compound E2.3] | ≥ 75 | ≥ 75 | ≥ 75 |  |  |  |  |  |  |  |  |  | 
2 | CC(C)/C=C(/C(=O)/N=c1\ccccn1Cc1ccc(Cl)nc1)[N+](=O)[O-] [Compound E3.1] | ≥ 75 | ≥ 75 | ≥ 75 | ≥ 75 | ≥ 75 | ≥ 75 | > 75 | ≥ 75 |  |  |  |  | 
3 | O=C(C[N+](=O)[O-])/N=c1\ccccn1Cc1ccc(Cl)nc1 [Compound E1.4] | ≥ 75 | ≥ 75 | ≥ 75 | ≥ 75 | ≥ 75 | ≥ 75 | > 75 | ≥ 75 | ≥ 75 | > 75 | ≥ 75 | > 75 | ≥ 75
